The text below walks through data of US20030059451A1, “Use of orally administered dehydroepiandrosterone, precursors and derivatives thereof in order to improve the papery aspect of the skin” (priority 2000, published 2003).

SMILES strings stand for the structures.

Common to all, as to assay type: in vivo, healthy volunteers (men and women)
Experiment [1] deals with healthy volunteers, of both sexes, 60 to 80 years old. The experiment is described as follows: Clinical evaluation of the weathered (papyrus-like) appearance of the skin, randomized double-blind study versus placebo. Conditions: 12 months; for variation in the weathered (papyrus-like) appearance relative to T0 (clinical score 0 to 9): back of a hand, 50 mg/day orally, FIG. 1. How it is done:
(§1) The evaluation was carried out using a randomized double-blind clinical study on 70 individuals (35 men and 35 women). The inclusion criteria were as follows: healthy volunteers, of both sexes, free of any severe pathological condition and 60 to 80 years old.
(§2) The treatment consisted, for 12 months, of a daily dose of 50 mg of DHEA, taken in the morning, in the form of a breakable tablet, for half the individuals, or as a placebo for the other half of the individuals.
The weathered (papyrus-like) appearance is evaluated clinically, blind, on the back of a hand at the start of treatment (T0) and at the end of treatment (T12), by the same clinician.
The weathered (papyrus-like) appearance is represented by a clinical score ranging from 0 (weathered appearance absent or only very slightly noticeable) to 9 (very marked weathered appearance).
(§3) The statistical analysis is performed using the Wilcoxon test.

For experiment [2] the test system is unchanged. The experiment in a line: Elasticity of the skin measured with the Derma Torque Meter, randomized double-blind study versus placebo. Conditions: for Elasticity of the skin of the forearm (ratio of extensibility to recovery): ventral side of the forearm. As for the experimental part: as §1, §2
The elasticity of the skin was evaluated with the Derma Torque Meter® (DTM® Dia-Stron Limited, Andover, Hampshire, United Kingdom). The biomechanical properties (elasticity) of the skin of the ventral side of the forearm is measured. The DTM® makes it possible to study the response of the skin to a deformation applied in the direction parallel to its surface. The rotation of a disk stuck to the skin is measured and the elasticity of the skin is thus evaluated, which is one of the best markers of aging (Escoffier C. et al. (1989), J. Invest. Dermatol., 93, 353-357).
The elasticity is expressed as the ratio of extensibility to recovery.
as §3

Experiment [3] has the same test system. The experiment in a line: Clinical evaluation of the slackening of the skin, randomized double-blind study versus placebo. To be noted: for Slackening of the skin of the forearm (clinical score 0 to 9): ventral side of the forearm. How it is done: as §1, §2
The slackening of the skin is evaluated clinically, blind, on the ventral side of the forearm and on the skin of the face at the start of treatment (T0) and at the end of treatment (T12), by the same clinician. The slackening of the skin is represented by a clinical score ranging from 0 (slight or hardly noticeable slackening) to 9 (very marked slackening). The statistical analysis is performed using the Wilcoxon test.

[4] abbreviates: after treatment with DHEA administered orally, 50 mg/day, 12 months.

For `C[C@]12CC[C@H](O)CC1=CC[C@@H]1[C@@H]2CC[C@]2(C)C(=O)CC[C@@H]12` [DHEA, dehydroepiandrosterone], the “variation in the weathered (papyrus-like) appearance relative to T0 (clinical score 0 to 9)” value is on record as “avoid this degradation” in experiment [1] (group of men) and “decrease in the mean scores” in experiment [1] (group of women, significant relative to placebo (p=0.005)). In addition, the “effect on the weathered (papyrus-like) appearance of the skin” value in experiment [1] (overall conclusion, after oral administration, 50 mg/day) is given as “improves the weathered (papyrus-like) appearance of the skin”. Also, the “Elasticity of the skin of the forearm (ratio of extensibility to recovery)” value in experiment [2] (T0 (start of treatment)) turned out to be 0.36; in experiment [2] (T12 (end of treatment), 50 mg/day orally, 12 months, Wilcoxon P = 0.55) it was 0.31. The “variation in the elasticity of the skin after treatment” value in experiment [2] (setting [4]) is listed as “do not significantly vary”. For the same molecule, the “Slackening of the skin of the face (clinical score 0 to 9)” value was found to be 6.69 in experiment [3] (T0 (start of treatment)) and 6.81 in experiment [3] (T12 (end of treatment), 50 mg/day orally, 12 months, Wilcoxon P = 0.5). The “Slackening of the skin of the forearm (clinical score 0 to 9)” value is recorded as 5.44 in experiment [3] (T0 (start of treatment)) and 7.19 in experiment [3] (T12 (end of treatment), 50 mg/day orally, 12 months, Wilcoxon P = 0.15). Besides, in experiment [3] (setting [4]), the “variation in the slackening of the skin after treatment” value was “do not significantly vary”.
